{"source": "paper PMC9879991", "about": "“Biomolecular condensates formed by designer minimalistic peptides” (Nature Communications, 2023)", "key": {"[1]": {"assay": "Encapsulation efficiency of peptide droplets, rhodamine B payload", "type": "physicochemical", "details": "C initial 10 µM, 20 mM peptide; for %EE: 20 mM Tris + 0.2 M NaCl pH 8, 15,000 g 10 min, supernatant absorbance 555 nm", "excerpt": "Next, we studied how peptide composition affects the encapsulation efficiency of the droplets by using GFP, rhodamine B, and fluorescein as fluorescent payload model systems (Fig. 4). We analyzed the encapsulation efficiency of the fluorescent payloads by using both confocal microscopy and absorbance measurements of the payloads in the dilute vs. the condensed phase (Fig. 4a–c). […] WGR-1 has the highest EE of fluorescein. In addition to π-π interactions, WGR-1 might form hydrogen bonding with the hydroxyl groups or electrostatic interactions with the deprotonated carboxylic acid of the dye.\nStock solutions (1 mM) of the fluorescein and rhodamine B dye molecules were prepared in 20 mM Tris buffer. Coacervate solutions of 20 mM peptide were prepared in 20 mM Tris + 0.2 M NaCl at pH 8. From these, a volume of 148.5 µl was mixed with 1.5 µl of dye solution in a 1.5 ml Eppendorf tube and pipetted. After 10 min the samples were centrifuged at 15,000 × g for 10 min. A volume of 120 μl from the supernatant was collected and vortexed and then the absorbance of 35 μl triplicates was measured (at λ = 490 nm for fluorescein and λ = 555 nm for RhB) in a 384 well black plate by Biotek H1 synergy plate reader (purchased from Lumitron, Israel). For GFP, a 7.5 µl of 20 mM Tris buffer to a 7.5 μl GFP aliquot from the purchased stock solution. The 15 µl of GFP solution was added to 135 µl of peptide solution and was mixed in a 1.5 ml Eppendorf tube and pipetted. The concentration of GFP at the supernatant was measured via fluorescence. All experiments were performed in triplicate. The concentration of the supernatant solutions determinate by calibration curves. Imaging was made to 30 μl of uncentrifuged samples. Efficiency of encapsulation (%EE) was calculated using Eq. 2. 2 %EE=CT−Csup/CT"}, "[2]": {"details": "solution NMR, S.D. in next row", "excerpt": "Source data are provided as a Source Data file.\n(1 picture or pasted object on this page, not shown here)"}, "[3]": {"assay": "Phase diagram in citrate / tris / ammonium bicarbonate buffers", "type": "physicochemical", "details": "20 mM citrate (pH 3-7)/tris (pH 7-9)/ammonium bicarbonate (pH 9-12), 0.2 M NaCl, room temperature", "experimental": "Since this analysis is highly sensitive to pH fluctuation, we also created phase diagrams for all peptides using three different buffers that are optimized for specific pH range: citrate buffer for pH 3–7, tris buffer for pH 7–9 and ammonium bicarbonate for pH 9–12 (Supplementary Fig. 1). While the trend in these phase diagrams is similar to that obtained only in tris buffer, the critical pH for LLPS is lower in citrate buffer for all LLPS-promoting peptides (Supplementary Fig. 1).\n150 μl of 5 mM, 8 mM, 10 mM, 15 mM, 20 mM, and 30 mM peptide solutions were prepared in either 20 mM tris buffer or 20 mM of the following three buffers: citrate buffer for pH 3–7 tris buffer for pH 7–9 and ammonium bicarbonate for pH 9–12, with 0.2 M NaCl. The pH was increased gradually until a turbidity appeared and measured as described below. All measurements were performed at room temperature. Data points represent averages of three independent measurements. Turbidity of 35 μl samples was estimated in triplicates from sample absorbance at λ = 500 nm as described below.\nSupplementary Figure 1. Phase diagram of the peptides as a function of peptide concentration and pH, in different buffers: citrate buffer for pH 3-7, tris buffer for pH 7-9, and ammonium bicarbonate buffer for pH 9-12. 0.2 M NaCl was added to all samples, measurements were obtained at room […]\ntemperature. […] Values represent average pH of n=3 independent measurements, data are presented as mean values +/- SD. […]"}}, "note": "No end group written: not given here.", "data": [{"sequence": "WGRGRGRGWPGVGY [WGR-1]", "values": [{"measurement": "%EE", "setting": "[1]; replicate 1, given as fraction", "result": 0.9106}, {"measurement": "%EE", "setting": "[1]; replicate 2, given as fraction", "result": 0.9029}, {"measurement": "%EE", "setting": "[1]; replicate 3, given as fraction", "result": 0.8168}, {"measurement": "Encapsulation efficiency (EE)", "setting": "[1]; 20 mM Tris + 0.2 M NaCl pH 8, supernatant absorbance 555 nm, mean of n=3, in percent", "result": 87.6774, "unit": "%"}, {"measurement": "D dilute phase (NMR), apparent diffusion coefficient", "setting": "[2]", "result": "1.91E-10", "unit": "m^2/sec"}, {"measurement": "pH at which turbidity (LLPS) appears", "setting": "[3]; 8 mM peptide, replicate 1", "result": 8.43}, {"measurement": "pH at which turbidity (LLPS) appears", "setting": "[3]; 8 mM peptide, replicate 2", "result": 8.47}, {"measurement": "pH at which turbidity (LLPS) appears", "setting": "[3]; 8 mM peptide, replicate 3", "result": 8.55}, {"measurement": "pH at which turbidity (LLPS) appears", "setting": "[3]; 10 mM peptide, mean of n=3", "result": 6.79}, {"measurement": "pH at which turbidity (LLPS) appears", "setting": "[3]; 10 mM peptide, replicate 1", "result": 6.32}, {"measurement": "pH at which turbidity (LLPS) appears", "setting": "[3]; 10 mM peptide, replicate 2", "result": 7.04}, {"measurement": "pH at which turbidity (LLPS) appears", "setting": "[3]; 10 mM peptide, replicate 3", "result": 7.01}, {"measurement": "pH at which turbidity (LLPS) appears", "setting": "[3]; 15 mM peptide, mean of n=3", "result": 6.34}, {"measurement": "pH at which turbidity (LLPS) appears", "setting": "[3]; 15 mM peptide, replicate 1", "result": 6.41}, {"measurement": "pH at which turbidity (LLPS) appears", "setting": "[3]; 15 mM peptide, replicate 2", "result": 6.41}, {"measurement": "pH at which turbidity (LLPS) appears", "setting": "[3]; 15 mM peptide, replicate 3", "result": 6.2}, {"measurement": "pH at which turbidity (LLPS) appears", "setting": "[3]; 20 mM peptide, mean of n=3", "result": 4.96}, {"measurement": "pH at which turbidity (LLPS) appears", "setting": "[3]; 20 mM peptide, replicate 1", "result": 5.1}, {"measurement": "pH at which turbidity (LLPS) appears", "setting": "[3]; 20 mM peptide, replicate 2", "result": 4.89}, {"measurement": "pH at which turbidity (LLPS) appears", "setting": "[3]; 20 mM peptide, replicate 3", "result": 4.89}, {"measurement": "pH at which turbidity (LLPS) appears", "setting": "[3]; 30 mM peptide, replicate 1", "result": 4.78}, {"measurement": "pH at which turbidity (LLPS) appears", "setting": "[3]; 30 mM peptide, replicate 2", "result": 4.27}, {"measurement": "pH at which turbidity (LLPS) appears", "setting": "[3]; 30 mM peptide, replicate 3", "result": 4.52}, {"measurement": "differential NaCl-induced change, largest (residue P10)", "result": 5.5, "unit": "Hz"}]}]}
